How the values were obtained:
GlgX [1] = molecular target: T1, GlgX (Streptomyces venezuelae, UniProt F2RAW5); assay: Microscale thermophoresis (MST); assay type: binding; conditions: 40 nM RED-NHS labeled GlgX, unlabeled c-di-GMP, n=2
Procedure: For MST experiments, purified GlgX was labeled using Monolith NT protein labeling kit RED-NHS (amine reactive) dye (NanoTemper Technologies GmbH) according to manufacturer´s guidelines. The protein concentration was adjusted to 20 μM in labeling buffer and the labeling reaction was carried out at rt for 30 min in the dark. Excess fluorescence dye was subsequently removed from the labeled protein by gel filtration using a dye removal column provided by the supplier and equilibrated with MST buffer (25 mM Tris pH 8, 150 mM NaCl, 2.5% (v/v) glycerol, 5 mM MgCl2, 0.05% (v/v) Tween). A UV/VIS spectrophotometry at 650 and 280 nm was used to determine the degree of labeling. Next, labeled GlgX was adjusted to 80 nM in MST buffer and a series of 16 1:2 dilutions of c-di-GMP (BioLog) were prepared using the same buffer. An equal volume of protein and c-di-GMP dilutions were mixed resulting in 16 samples with 40 nM protein each and c-di-GMP concentrations ranging from 2 mM to […]. Samples were then loaded into Monolith NT.115 Premium Capillaries (NanoTemper Technologies) and MST was measured using a Monolith NT.115 instrument (NanoTemper Technologies). Instrument parameters were set to 20% LED power and 40% MST power and the data were analyzed using MO.Affinity Analysis software version 2.3; NanoTemper Technologies. […]

GlgX [2] = molecular target: T1, GlgX; assay: Fluorescence polarization (FP) binding, wild-type GlgX; conditions: summary value of FP (Fig. 5c) and MST (Supplementary Fig. 8); read-out: affinity of GlgX for c-di-GMP
Source text: Fig. 5 Structure of the S. venezuelae GlgX-c-di-GMP complex. a Ribbon diagram of the S. venezuelae GlgX-c-di-GMP complex with one GlgX subunit colored cyan and the other salmon. Shown as sticks are the c-di-GMP molecules bound at each end of the antiparallel dimer. […] There was clear density for each c-di-GMP molecule. b Close up of the GlgX-c-di-GMP binding interaction. Key residues mediating contacts to the c-di-GMP are shown as sticks and labeled. Hydrogen bonds from GlgX residues that specify binding to the guanine are indicated by yellow dashed lines. c Fluorescence polarization (FP) binding isotherm showing interaction of GlgX, GlgXE47A-R49A and GlgXR438A-R579A for F-c-di-GMP in red, green and blue respectively. Also shown is the binding isotherm for GlgX binding to F-c-di-AMP in black. […] The y-axis and x-axis are millipolarization (mP) units and GlgX concentration (μM), respectively. Shown are representative binding curves for each. The experiments were performed in technical triplicates and the error between measurements reported. Error bars represent SD of the measurements. Source data are provided in the Source data file.
Thus, we used this F-tagged c-di-GMP in fluorescence polarization (FP) studies to quantify the interaction between GlgX and c-di-GMP. […] To ensure that the presence of the fluorescent tag was not impacting the GlgX interaction with c-di-GMP we used microscale thermophoresis (MST) to quantify c-di-GMP binding to GlgX. […] But to further probe the structural model we created GlgXE47A-R49A and GlgXR438A-R579A mutants and performed FP studies with these proteins.
To measure c-di-GMP binding to GlgX and GlgX mutants, 2′-O-(6-[Fluoresceinyl]aminohexylcarbamoyl)-cyclic diguanosine monophosphate (2′-Fluo-AHC-c-di-GMP) (BioLog), was used as a fluoresceinated reporter ligand. This molecule is conjugated via a nine atom spacer to one of the c-di-GMP 2′ hydroxyl groups. […] 2′-O-(6-[Fluoresceinyl]aminohexylcarbamoyl)-cyclic diadenosine monophosphate (2′-Fluo-AHC-c-di-AMP) (BioLog) was also used in binding studies to assess specificity of GlgX for c-di-GMP. […]

T1 sequence (F2RAW5 entry or part of it): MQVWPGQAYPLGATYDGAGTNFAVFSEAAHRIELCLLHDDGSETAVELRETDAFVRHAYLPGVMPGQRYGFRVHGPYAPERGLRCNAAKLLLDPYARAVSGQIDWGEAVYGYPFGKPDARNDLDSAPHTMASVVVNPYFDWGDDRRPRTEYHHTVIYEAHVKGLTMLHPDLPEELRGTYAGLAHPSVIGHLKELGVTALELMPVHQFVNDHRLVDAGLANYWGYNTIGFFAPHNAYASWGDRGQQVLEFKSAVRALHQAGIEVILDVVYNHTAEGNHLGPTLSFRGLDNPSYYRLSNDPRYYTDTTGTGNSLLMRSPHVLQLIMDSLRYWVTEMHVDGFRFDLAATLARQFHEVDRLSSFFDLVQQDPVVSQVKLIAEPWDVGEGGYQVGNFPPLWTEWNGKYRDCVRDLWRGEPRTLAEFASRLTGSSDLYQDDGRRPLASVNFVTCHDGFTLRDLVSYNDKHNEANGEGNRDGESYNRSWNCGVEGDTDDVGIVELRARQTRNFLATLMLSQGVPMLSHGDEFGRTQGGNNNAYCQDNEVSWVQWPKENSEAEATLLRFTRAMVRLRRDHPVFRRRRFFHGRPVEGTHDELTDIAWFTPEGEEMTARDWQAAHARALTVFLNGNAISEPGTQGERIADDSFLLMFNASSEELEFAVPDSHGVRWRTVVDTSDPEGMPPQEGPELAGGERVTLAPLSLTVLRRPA

Nc1nc2c(ncn2[C@@H]2O[C@@H]3CO[P@](=O)(O)O[C@H]4[C@@H](O)[C@H](n5cnc6c(=O)[nH]c(N)nc65)O[C@@H]4CO[P@](=O)(O)O[C@H]3[C@H]2O)c(=O)[nH]1 [c-di-GMP, bis-(3′−5′)-cyclic diguanosine monophosphate]
Kd (GlgX [1]): 8.3 µM
Kd (GlgX [2]): ~8 µM

— paper PMC9530166, “Allosteric regulation of glycogen breakdown by the second messenger cyclic di-GMP” (Nature Communications, 2022)
